Measured values: ChEMBL document CHEMBL4251615, “Discovery of anilino-furo[2,3-d]pyrimidine derivatives as dual inhibitors of EGFR/HER2 tyrosine kinase and their anticancer activity” (Eur J Med Chem, 2018)
Active and inactive are the calls of the source. The calls are words filed in the database; no cut-off is given here.

Legend:
[1] = target: Receptor tyrosine-protein kinase erbB-2 (Homo sapiens) (UniProt P04626); assay: Inhibition of recombinant human N-terminal GST-tagged HER2 (679 to 1255 residues) expressed in baculovirus infected Sf9 cells at 10 uM using poly[Glu:Tyr] (4:1) as substrate after 40 mins by Kinase-Glo plus luminescence assay relative to control
Chain of Receptor tyrosine-protein kinase erbB-2 (Homo sapiens) (P04626 whole entry, the tested form may be a part): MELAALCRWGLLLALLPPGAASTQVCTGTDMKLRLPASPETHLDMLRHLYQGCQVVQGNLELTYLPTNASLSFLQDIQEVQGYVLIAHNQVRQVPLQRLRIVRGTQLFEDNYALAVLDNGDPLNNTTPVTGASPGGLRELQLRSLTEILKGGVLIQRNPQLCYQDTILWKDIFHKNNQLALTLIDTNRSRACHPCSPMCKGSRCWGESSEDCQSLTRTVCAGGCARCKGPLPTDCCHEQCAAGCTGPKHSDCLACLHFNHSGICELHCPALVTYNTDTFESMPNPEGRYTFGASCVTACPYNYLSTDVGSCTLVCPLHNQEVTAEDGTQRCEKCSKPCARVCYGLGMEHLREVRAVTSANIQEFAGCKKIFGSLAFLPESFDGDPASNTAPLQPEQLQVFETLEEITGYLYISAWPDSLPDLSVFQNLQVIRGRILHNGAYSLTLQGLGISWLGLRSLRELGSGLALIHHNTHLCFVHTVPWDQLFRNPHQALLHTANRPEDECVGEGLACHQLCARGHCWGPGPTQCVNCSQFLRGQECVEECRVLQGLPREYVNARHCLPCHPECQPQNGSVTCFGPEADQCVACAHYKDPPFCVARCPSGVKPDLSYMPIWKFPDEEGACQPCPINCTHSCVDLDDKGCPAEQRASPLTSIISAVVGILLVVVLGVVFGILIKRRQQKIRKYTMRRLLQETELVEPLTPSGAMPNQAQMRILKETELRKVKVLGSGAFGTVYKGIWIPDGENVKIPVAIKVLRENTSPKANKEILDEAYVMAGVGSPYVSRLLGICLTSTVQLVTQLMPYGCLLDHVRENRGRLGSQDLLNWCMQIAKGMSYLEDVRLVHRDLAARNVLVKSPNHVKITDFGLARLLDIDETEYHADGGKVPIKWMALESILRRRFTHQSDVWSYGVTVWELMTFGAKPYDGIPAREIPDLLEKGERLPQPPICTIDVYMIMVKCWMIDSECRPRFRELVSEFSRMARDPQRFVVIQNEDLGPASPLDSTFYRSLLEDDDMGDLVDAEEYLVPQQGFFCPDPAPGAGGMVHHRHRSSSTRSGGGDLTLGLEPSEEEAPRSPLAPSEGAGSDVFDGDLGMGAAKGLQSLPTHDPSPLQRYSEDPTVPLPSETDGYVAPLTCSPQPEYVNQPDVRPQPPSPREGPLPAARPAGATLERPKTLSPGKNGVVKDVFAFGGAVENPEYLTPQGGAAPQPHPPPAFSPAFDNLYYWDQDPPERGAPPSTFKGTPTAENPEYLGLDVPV

MCF7 = assay: Cytotoxicity against human MCF7 cells assessed as reduction in cell viability after 72 hrs by MTT assay; type: functional, cell-based; conditions: MCF7, 72 h
A549 [2] = assay: Cytotoxicity against human A549 cells assessed as reduction in cell viability after 72 hrs by MTT assay; type: functional, cell-based; conditions: A549, 72 h
[3] = target: T1, Epidermal growth factor receptor (Homo sapiens, UniProt P00533); assay: Inhibition of recombinant human C-terminal His/N-terminal GST-tagged EGFR (668 to 1210 residues) expressed in baculovirus infected Sf9 cells at 10 uM using biotin-labeled poly[Glu:Tyr] (4:1) as substrate after 30 mins by Kinase-Glo plus luminescence assay relative to control
T1 sequence (P00533 whole entry, the tested form may be a part): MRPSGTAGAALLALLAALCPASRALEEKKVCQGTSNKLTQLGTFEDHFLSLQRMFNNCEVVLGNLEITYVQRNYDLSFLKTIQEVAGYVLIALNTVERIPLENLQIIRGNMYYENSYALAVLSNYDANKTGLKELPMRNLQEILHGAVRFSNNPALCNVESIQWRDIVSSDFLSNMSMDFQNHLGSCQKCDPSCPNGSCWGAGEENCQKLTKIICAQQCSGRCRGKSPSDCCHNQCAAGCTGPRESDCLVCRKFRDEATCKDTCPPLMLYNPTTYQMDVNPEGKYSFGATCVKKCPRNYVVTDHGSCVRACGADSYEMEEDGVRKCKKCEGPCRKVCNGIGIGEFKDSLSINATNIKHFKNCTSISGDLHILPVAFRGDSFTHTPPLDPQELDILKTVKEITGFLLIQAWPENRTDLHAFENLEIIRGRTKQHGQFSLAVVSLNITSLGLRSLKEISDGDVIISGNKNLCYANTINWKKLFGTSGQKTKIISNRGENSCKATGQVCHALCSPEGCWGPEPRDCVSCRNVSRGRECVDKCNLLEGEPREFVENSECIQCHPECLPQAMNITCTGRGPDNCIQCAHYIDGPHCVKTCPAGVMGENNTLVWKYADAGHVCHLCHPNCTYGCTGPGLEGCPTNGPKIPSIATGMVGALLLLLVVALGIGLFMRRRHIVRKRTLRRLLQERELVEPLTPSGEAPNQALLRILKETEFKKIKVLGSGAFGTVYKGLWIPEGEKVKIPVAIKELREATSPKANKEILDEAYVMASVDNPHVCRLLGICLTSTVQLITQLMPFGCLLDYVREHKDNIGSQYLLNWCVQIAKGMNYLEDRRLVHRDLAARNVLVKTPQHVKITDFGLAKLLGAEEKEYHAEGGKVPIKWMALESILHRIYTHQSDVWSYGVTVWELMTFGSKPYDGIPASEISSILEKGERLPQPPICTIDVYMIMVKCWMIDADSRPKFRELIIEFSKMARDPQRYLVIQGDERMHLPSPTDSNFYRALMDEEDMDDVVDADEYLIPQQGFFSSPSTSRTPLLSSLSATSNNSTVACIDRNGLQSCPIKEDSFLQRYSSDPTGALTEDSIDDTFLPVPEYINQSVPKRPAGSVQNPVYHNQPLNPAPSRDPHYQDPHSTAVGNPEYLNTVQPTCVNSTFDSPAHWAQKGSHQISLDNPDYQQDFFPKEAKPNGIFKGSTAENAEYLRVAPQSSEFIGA

Ehrlich [4] = assay: Antitumor activity against mouse EAC cells implanted in albino mouse assessed as tumor growth inhibition at 5 mg/kg, po once daily for 8 consecutive days relative to control; type: functional; conditions: read-out: TGI
Ehrlich [5] = assay: Antitumor activity against mouse EAC cells implanted in albino mouse assessed as increase in caspase-3 expression in tumor at 10 mg/kg, po once daily for 8 consecutive days by immunohistochemical analysis relative to control; type: functional
Ehrlich [6] = assay: Antitumor activity against mouse EAC cells implanted in albino mouse assessed as tumor growth inhibition at 10 mg/kg, po once daily for 8 consecutive days relative to control; type: functional; conditions: read-out: TGI
Ehrlich [7] = assay: Antitumor activity against mouse EAC cells implanted in albino mouse assessed as increase in cytochrome-c expression in tumor at 10 mg/kg, po once daily for 8 consecutive days by immunohistochemical analysis; type: functional, organism-based
Ehrlich [8] = assay: Antitumor activity against mouse EAC cells implanted in albino mouse assessed as focal cell death in thigh muscle tumor cells at 5 to 10 mg/kg, po once daily for 8 consecutive days by hematoxylin and eosin staining based light microscopic method; type: functional, organism-based
A549 [9] = assay: Cell cycle arrest in human A549 cells assessed as accumulation at G2/M phase after 24 hrs by propidium iodide staining based flow cytometry relative to control; type: functional
[10] = target: T1, Epidermal growth factor receptor; assay: Inhibition of recombinant human C-terminal His/N-terminal GST-tagged EGFR (668 to 1210 residues) expressed in baculovirus infected Sf9 cells using biotin-labeled poly[Glu:Tyr] (4:1) as substrate after 30 mins by Kinase-Glo plus luminescence assay
A549 [11] = assay: Induction of apoptosis in human A549 cells assessed as live cells after 24 hrs by Annexin V-FITC/propidium iodide staining based flow cytometry (reference value: 97.93%); type: functional
A549 [12] = assay: Induction of apoptosis in human A549 cells assessed as early apoptotic cells after 24 hrs by Annexin V-FITC/propidium iodide staining based flow cytometry (reference value: 0.26%); type: functional
Mus musculus [13] = assay: Toxicity in albino mouse implanted with mouse EAC cells assessed as body weight change at 5 to 10 mg/kg, po once daily for 8 consecutive days; type: organism-based; conditions: in vivo
A549 [14] = assay: Induction of apoptosis in human A549 cells assessed as late apoptotic cells after 24 hrs by Annexin V-FITC/propidium iodide staining based flow cytometry (reference value: 0.11%); type: functional
A549 [15] = assay: Cell cycle arrest in human A549 cells assessed as accumulation at pre-G1 phase after 24 hrs by propidium iodide staining based flow cytometry relative to control; type: functional
A549 [16] = assay: Induction of apoptosis in human A549 cells assessed as necrotic cells after 24 hrs by Annexin V-FITC/propidium iodide staining based flow cytometry (reference value: 0.17%); type: functional
Mus musculus [17] = assay: Toxicity in albino mouse implanted with mouse EAC cells assessed as change in organ index at 5 to 10 mg/kg, po once daily for 8 consecutive days; type: organism-based; conditions: in vivo
Ehrlich [18] = assay: Antitumor activity against mouse EAC cells implanted in albino mouse assessed as cell death in thigh muscle tumor cells at 10 mg/kg, po once daily for 8 consecutive days by hematoxylin and eosin staining based light microscopic method; type: functional, organism-based
A549 [19] = assay: Induction of apoptosis in human A549 cells assessed as increase in early apoptotic cells after 24 hrs by Annexin V-FITC/propidium iodide staining based flow cytometry relative to control; type: functional
A549 [20] = assay: Induction of apoptosis in human A549 cells assessed as increase in late apoptotic cells after 24 hrs by Annexin V-FITC/propidium iodide staining based flow cytometry relative to control; type: functional
Ehrlich [21] = assay: Antitumor activity against mouse EAC cells implanted in albino mouse assessed as tumor growth inhibition administered orally once daily for 8 consecutive days; type: functional

inhibition [3] | Compound | IC50 (MCF7) | IC50 (A549 [2]) | other results
5% | CCOC(=O)c1c(C)oc2ncnc(Nc3ccc(OCc4cccc(Cl)c4)cc3)c12 | 54 µM | 513 µM | inhibition [1]: 7%
72% | Cc1cccc(Nc2ncnc3oc(C)c(CO)c23)c1 | 17 µM | 24 µM | –
20% | CCCNC(=O)c1c(C)oc2ncnc(Nc3cccc(C)c3)c12 | > 1000 µM | > 1000 µM | –
10% | CCOC(=O)c1c(C)oc2ncnc(Nc3ccc(OCc4ccccc4)cc3)c12 | > 1000 µM | > 1000 µM | inhibition [1]: 3%
70% | Cc1oc2ncnc(Nc3cccc(Br)c3)c2c1CO | 11 µM | 102 µM | –
26% | C#Cc1cccc(Nc2ncnc3oc(C)c(C(=O)OCC)c23)c1 | > 1000 µM | > 1000 µM | –
30% | Cc1oc2ncnc(Nc3ccccc3)c2c1C(=O)O | 246 µM | 191 µM | –
6% | CCOC(=O)c1c(C)oc2ncnc(Nc3ccc(OCc4ccc(C)cc4)cc3)c12 | > 1000 µM | > 1000 µM | inhibition [1]: 20%
100% | Cc1oc2ncnc(Nc3ccc(OCc4cccc(F)c4)c(Cl)c3)c2c1C(=O)O | 46 µM | 21.4 µM | inhibition in vivo at 5 mg/kg (Ehrlich [4]): 34.9%; inhibition [1]: 65%; Activity (Ehrlich [5]): 51%; inhibition in vivo at 10 mg/kg (Ehrlich [6]): 49%; Activity (Ehrlich [7]): Active; Activity (Ehrlich [8]): Active; fold change (FC) (A549 [9]): 3; IC50 [10]: 0.951 µM; Activity (A549 [11]): 88.77%; Activity (A549 [12]): 3.72%; Activity (Mus musculus [13]): Non-Toxic; Activity (A549 [14]): 4.84%; fold change (FC) (A549 [15]): 17; Activity (A549 [16]): 0.8%; Activity (Mus musculus [17]): Non-Toxic
21% | Cc1oc2ncnc(Nc3cccc(Cl)c3)c2c1C(=O)NC(C)C | 190 µM | > 1000 µM | –
6% | CCOC(=O)c1c(C)oc2ncnc(Nc3cccc(OC)c3)c12 | > 1000 µM | > 1000 µM | –
94% | Cc1oc2ncnc(Nc3cccc(Br)c3)c2c1C(=O)O | 68 µM | 43 µM | inhibition in vivo at 5 mg/kg (Ehrlich [4]): 61.4%; fold change (FC) (Ehrlich [5]): >2; inhibition in vivo at 10 mg/kg (Ehrlich [6]): 70.8%; Activity (Ehrlich [7]): Active; Activity (Ehrlich [18]): Active; fold change (FC) (A549 [9]): 2; IC50 [10]: 0.752 µM; Activity (A549 [11]): 92.02%; Activity (A549 [12]): 2.78%; Activity (Mus musculus [13]): Non-Toxic; Activity (A549 [14]): 3.05%; fold change (FC) (A549 [15]): 12; Activity (A549 [16]): 0.66%; Activity (Mus musculus [17]): Non-Toxic
85% | Cc1oc2ncnc(Nc3cccc(Cl)c3)c2c1C(=O)O | 57.5 µM | 95.5 µM | IC50 [10]: 0.901 µM
58% | Cc1cccc(Nc2ncnc3oc(C)c(C(=O)O)c23)c1 | 57.5 µM | 100 µM | –
26% | CCOC(=O)c1c(C)oc2ncnc(Nc3cccc(Br)c3)c12 | > 1000 µM | > 1000 µM | –
73% | Cc1oc2ncnc(Nc3cccc(Br)c3)c2c1C(=O)NCCO | 22 µM | 17.4 µM | –
18% | CCOC(=O)c1c(C)oc2ncnc(Nc3ccc(OCc4cccc(F)c4)c(Cl)c3)c12 | 257 µM | 0.5 µM | inhibition in vivo at 5 mg/kg (Ehrlich [4]): 35.1%; inhibition [1]: 6%; fold change (FC) (Ehrlich [5]): >2; fold change (FC) (A549 [19]): 25; inhibition in vivo at 10 mg/kg (Ehrlich [6]): 67.1%; Activity (Ehrlich [7]): Active; Activity (Ehrlich [18]): Active; fold change (FC) (A549 [9]): 5; Activity (A549 [11]): 81.19%; fold change (FC) (A549 [20]): 79; Activity (Ehrlich [21]): Dose-dependent effect; Activity (A549 [12]): 6.59%; Activity (Mus musculus [13]): Non-Toxic; Activity (A549 [14]): 8.69%; fold change (FC) (A549 [15]): 32; Activity (A549 [16]): 1.67%; Activity (Mus musculus [17]): Non-Toxic
– | COc1cc2ncnc(Nc3ccc(F)c(Cl)c3)c2cc1OCCCN1CCOCC1 [GEFITINIB] | – | – | Activity (Ehrlich [5]): Active; Activity (Ehrlich [7]): Active; Activity (Ehrlich [18]): Active; Activity (A549 [11]): 84.12%; Activity (A549 [12]): 5.84%; Activity (A549 [14]): 6.72%; Activity (A549 [16]): 1.67%
52% | CCOC(=O)c1c(C)oc2ncnc(Nc3cccc(C)c3)c12 | > 1000 µM | > 1000 µM | –
28% | CCOC(=O)c1c(C)oc2ncnc(Nc3cccc(Cl)c3)c12 | > 1000 µM | > 1000 µM | –
22% | CCOC(=O)c1c(C)oc2ncnc(Nc3ccccc3)c12 | 851 µM | > 1000 µM | –
85% | Cc1oc2ncnc(Nc3cccc(Cl)c3)c2c1C(=O)NCCO | > 1000 µM | > 1000 µM | IC50 [10]: 2.7 µM
